Assay results: patent US11084795B2, “CFTR regulators and methods of use thereof” (The Regents of the University of California, priority 2015, dated 2021)
Where “and” joins values, the source holds several entries; their conditions need not be identical. Equal entries are not always repeated. Entries after “also recorded” stand apart in the source; their conditions may differ.

Legend:
[1] = Compound accumulation in systemic tissues after 14 days topical dosing; assay type: in vivo, mouse; details: two weeks of three times per day topical dosing
[2] = tested on: whole-gut transit; experiment: Whole-gut transit time in mice; assay type: in vivo, mouse
Method: Whole-gut transit time was determined using an orally administered marker (200 μL, 5% Evans Blue, 5% gum Arabic) and measuring the time of its appearance in stool. Mice were administered loperamide and CFTRact-J027 (10 mg/kg) or vehicle intraperitoneally at zero time. For ex vivo contractility measurements, mice were euthanized by avertin overdose (200 mg/kg, 2,2,2-tribromethanol, Sigma-Aldrich) and ileum and colon segments of ˜2 cm length were isolated and washed with Krebs-Henseleit buffer. The ends of the intestinal segments were tied, connected to a force transducer (Biopac Systems, Goleta, Calif., USA) and tissues were transferred to an organ chamber (Biopac Systems) containing Krebs-Henseleit buffer at 37° C. aerated with 95% O2, 5% CO2. Ileum and colon were stabilized for 60 min with resting tensions of 0.5 and 0.2 g respectively, and solutions were changed every 15 min. Effects of CFTRact-J027 on baseline and loperamide-suppressed isometric intestinal contractions were recorded.
In vivo intestinal transit and ex vivo intestinal contractility. Whole-gut transit time was determined using an orally administered marker (200 μL, 5% Evans Blue, 5% gum Arabic) and measuring the time of its appearance in stool. […] Effects of CFTRact-J027 on baseline and loperamide-suppressed isometric intestinal contractions were recorded.

[3] = tested on: C3H/HeJ mice; experiment: Genetic mouse model of chronic constipation (C3H/HeJ); assay type: in vivo
Method: The efficacy of orally administered CFTRact-J027 (10 mg/kg) was also tested in a genetically constipated mouse strain (15) (C3H/HeJ, age 8-11 weeks) and their wildtype counterparts (C3H/HeOuJ, age 8-11 weeks). Mice were placed in metabolic cages after CFTRact-J027 or vehicle administration at zero time and stool was collected for 4 h. Stool weight, pellet number and water content were determined as described above. Whole-gut transit time was measured to assess gut motility, in which mice treated with CFTRact-J027 (10 mg/kg, ip) or vehicle at zero time were given with 100 μL blue marker (5% Evans blue, 5% gum Arabic) orally. The time of blue dye appearance in stool was determined. All experiments in C3H/HeJ and C3H/HeOuJ mice were done in paired animals to minimize variability.

[4] = biological target: human wildtype CFTR (Homo sapiens, UniProt P13569); experiment: Short-circuit current (Isc) in FRT cells expressing human wild-type CFTR
Chain of human wildtype CFTR (P13569 whole entry): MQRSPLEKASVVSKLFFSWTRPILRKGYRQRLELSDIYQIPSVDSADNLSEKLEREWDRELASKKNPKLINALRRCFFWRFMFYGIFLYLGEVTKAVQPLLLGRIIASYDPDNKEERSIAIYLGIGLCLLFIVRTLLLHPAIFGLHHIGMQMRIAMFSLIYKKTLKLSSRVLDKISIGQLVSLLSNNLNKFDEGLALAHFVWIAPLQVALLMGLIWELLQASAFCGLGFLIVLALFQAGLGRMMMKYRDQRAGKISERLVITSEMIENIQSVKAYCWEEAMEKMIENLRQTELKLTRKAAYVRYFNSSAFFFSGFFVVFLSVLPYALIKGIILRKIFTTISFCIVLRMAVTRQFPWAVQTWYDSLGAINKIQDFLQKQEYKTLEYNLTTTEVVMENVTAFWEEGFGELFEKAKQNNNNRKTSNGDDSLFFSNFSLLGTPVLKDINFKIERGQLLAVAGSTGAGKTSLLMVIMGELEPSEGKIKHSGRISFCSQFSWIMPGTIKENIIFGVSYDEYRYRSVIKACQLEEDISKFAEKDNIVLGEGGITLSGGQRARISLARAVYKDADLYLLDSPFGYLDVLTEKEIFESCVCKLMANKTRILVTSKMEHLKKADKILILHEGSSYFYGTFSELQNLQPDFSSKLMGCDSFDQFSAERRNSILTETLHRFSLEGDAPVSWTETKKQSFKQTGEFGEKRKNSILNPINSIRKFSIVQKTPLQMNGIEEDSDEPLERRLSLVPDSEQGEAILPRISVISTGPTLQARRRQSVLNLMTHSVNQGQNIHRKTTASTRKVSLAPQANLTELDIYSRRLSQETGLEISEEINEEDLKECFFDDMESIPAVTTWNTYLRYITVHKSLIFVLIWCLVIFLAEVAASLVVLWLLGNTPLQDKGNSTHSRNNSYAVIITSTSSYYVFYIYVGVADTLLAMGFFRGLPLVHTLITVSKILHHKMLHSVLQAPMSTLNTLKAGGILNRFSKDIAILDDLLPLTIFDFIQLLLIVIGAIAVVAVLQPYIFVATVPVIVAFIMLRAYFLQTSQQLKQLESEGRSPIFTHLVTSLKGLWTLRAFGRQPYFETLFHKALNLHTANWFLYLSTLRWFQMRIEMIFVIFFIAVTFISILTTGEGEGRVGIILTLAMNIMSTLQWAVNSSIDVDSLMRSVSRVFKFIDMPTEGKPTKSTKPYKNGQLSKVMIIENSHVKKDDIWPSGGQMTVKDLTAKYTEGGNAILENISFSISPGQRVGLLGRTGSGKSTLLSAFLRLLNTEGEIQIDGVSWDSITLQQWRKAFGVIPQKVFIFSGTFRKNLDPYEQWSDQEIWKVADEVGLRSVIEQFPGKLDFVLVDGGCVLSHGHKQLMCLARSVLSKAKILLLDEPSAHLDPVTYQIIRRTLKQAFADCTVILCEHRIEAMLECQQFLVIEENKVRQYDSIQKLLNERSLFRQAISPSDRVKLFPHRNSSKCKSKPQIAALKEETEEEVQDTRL

[5] = tested on: Cl− secretion in mouse colon; experiment: Short-circuit current in freshly isolated mouse colon; details: read-out: EC50 for increase in short-circuit current in mouse colon
Text: Short-circuit current measurement.

[6] = In vitro metabolic stability in human liver microsomes; assay type: in vitro ADME
Method: (§1) To study gastric acid stability CFTRact-J027 (10 μM) was dissolved in simulated gastric fluid (0.2 NaCl, 0.7% HCl, pH 2) and incubated for 3 h at 37° C. To study in vitro metabolic stability CFTRact-J027 (5 μM) was incubated for specified times at 37° C. with human liver microsomes (1 mg protein/ml; Sigma-Aldrich) in potassium phosphate buffer (100 mM) containing 1 mM NADPH. After specified incubation periods the mixtures were chilled on ice, and 0.5 ml of ice-cold ethyl acetate was added. Samples were centrifuged for 15 min at 3000 rpm, the supernatants evaporated to dryness, and the residues were dissolved in 100 μL mobile phase (acetonitrile:water, 3:1) and assayed by liquid chromatography mass spectrometry (LC/MS). The solvent system consisted of a linear gradient from 5 to 95% acetonitrile over 16 min (0.2 ml/min flow). Mass spectra were acquired on a mass spectrometer (Waters 2695 and Micromass ZQ, Milford, Mass.) using electrospray (+) ionization, mass ranging from 100 to 1500 Da, cone voltage 40 V.

[7] = biological target: T1, ΔF508-CFTR (Homo sapiens, UniProt P13569, DEL508-508); experiment: Short-circuit current in FRT cells expressing ΔF508-CFTR corrected with VX-809; assay type: cell-based; details: after overnight incubation with a corrector
T1 construct: expressed in transfected cells; host or cells: Fischer rat thyroid (FRT) cells
T1 sequence (P13569 with tags, fused parts or gaps DEL508-508): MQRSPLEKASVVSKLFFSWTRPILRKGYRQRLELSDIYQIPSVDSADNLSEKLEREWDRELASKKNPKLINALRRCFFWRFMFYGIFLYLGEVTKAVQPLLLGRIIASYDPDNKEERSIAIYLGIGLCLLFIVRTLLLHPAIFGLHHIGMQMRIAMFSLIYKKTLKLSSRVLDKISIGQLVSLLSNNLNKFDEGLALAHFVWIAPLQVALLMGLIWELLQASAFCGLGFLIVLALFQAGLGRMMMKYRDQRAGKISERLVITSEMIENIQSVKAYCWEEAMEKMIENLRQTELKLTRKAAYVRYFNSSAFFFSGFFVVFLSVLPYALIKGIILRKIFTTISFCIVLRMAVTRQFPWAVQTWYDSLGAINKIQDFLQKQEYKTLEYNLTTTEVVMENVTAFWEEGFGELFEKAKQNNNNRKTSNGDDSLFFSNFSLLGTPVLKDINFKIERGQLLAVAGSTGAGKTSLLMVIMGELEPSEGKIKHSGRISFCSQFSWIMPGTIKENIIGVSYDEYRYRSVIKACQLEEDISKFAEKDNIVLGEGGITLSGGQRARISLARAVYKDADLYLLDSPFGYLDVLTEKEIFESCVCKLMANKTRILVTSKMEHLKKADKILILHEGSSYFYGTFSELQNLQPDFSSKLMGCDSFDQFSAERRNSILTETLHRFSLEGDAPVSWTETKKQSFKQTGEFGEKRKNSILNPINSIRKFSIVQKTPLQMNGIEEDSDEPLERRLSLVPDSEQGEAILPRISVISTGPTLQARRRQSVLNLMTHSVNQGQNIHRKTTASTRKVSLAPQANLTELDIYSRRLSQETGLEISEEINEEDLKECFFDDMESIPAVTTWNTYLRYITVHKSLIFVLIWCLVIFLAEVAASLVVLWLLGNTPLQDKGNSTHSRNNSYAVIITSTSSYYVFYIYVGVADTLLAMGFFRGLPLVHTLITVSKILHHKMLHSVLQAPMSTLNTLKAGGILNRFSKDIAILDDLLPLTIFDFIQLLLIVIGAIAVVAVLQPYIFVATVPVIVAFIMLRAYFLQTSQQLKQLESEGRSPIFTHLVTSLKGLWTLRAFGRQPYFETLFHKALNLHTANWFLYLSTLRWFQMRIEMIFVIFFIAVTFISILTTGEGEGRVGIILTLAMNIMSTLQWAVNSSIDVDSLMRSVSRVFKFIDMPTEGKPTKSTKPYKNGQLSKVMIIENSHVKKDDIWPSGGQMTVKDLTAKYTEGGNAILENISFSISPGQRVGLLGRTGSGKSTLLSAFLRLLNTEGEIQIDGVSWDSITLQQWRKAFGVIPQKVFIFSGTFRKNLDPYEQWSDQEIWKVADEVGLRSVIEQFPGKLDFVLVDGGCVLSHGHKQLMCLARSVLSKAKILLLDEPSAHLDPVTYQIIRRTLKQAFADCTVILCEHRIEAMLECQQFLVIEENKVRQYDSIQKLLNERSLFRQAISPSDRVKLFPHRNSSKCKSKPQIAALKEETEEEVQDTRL
Method: FIGS. 9A-9E. Characterization of CFTR activation by CFTRact-J027. Short-circuit current measured in FRT cells expressing human wild-type CFTR (FIG. 9A) and ΔF508-CFTR (FIG. 9C) showing responses to indicated concentrations of forskolin (fsk), CFTRact-J027, and VX-770. The ΔF508-CFTR-expressing FRT cells were corrected with 3 μM VX-809 at 37° C. for 24 h before measurement. CFTRinh-172 (Inh-172, 10 μM) was added where indicated. FIG. 9B. CFTRact-J027 concentration-dependent activation of wild-type CFTR Cl^− current (S.E.; n=3 cultures). FIG. 9D. Short-circuit current in mouse colon showing responses to indicated concentrations of forskolin (fsk), CFTRact-J027, and CFTRinh-172. FIG. 9E. Assay of cAMP concentration in FRT cells measured following 10-min incubation with indicated concentrations of forskolin and 5 μM CFTRact-J027. Positive controls included forskolin (100 nM and 20 μM), and forskolin plus 3-isobutyl-1-methylxanthine (IBMX, 100 μM) (mean±SE, n=4-8).

[8] = Stability in simulated gastric fluid (pH 2); assay type: physicochemical; details: 10 μM, pH 2, 37° C., 3 h
Method: as §1

Nc1ccc([N+](=O)[O-])cc1-c1nc2ccccc2n(Cc2ccccc2)c1=O [CFTRact-J027, 3-(2-amino-5-nitrophenyl)-1-benzylquinoxalin-2(1H)-one]
amount in mouse blood, brain, liver and kidney (limit of detection) [1]: < 700 fmol | whole-gut transit time in cystic fibrosis mice ([2]; cystic fibrosis mice): no effect on whole-gut transit time | whole-gut transit time ([2]; loperamide-treated wild-type mice, 10 mg/kg ip): normalized | whole-gut transit time in C3H/HeJ mice ([3]; 10 mg/kg ip): normalized the increased whole-gut transit time | 4-h stool weight, pellet number and water content ([3]; 10 mg/kg oral, C3H/HeJ mice): increased 4-h stool weight, pellet number and water content in C3H/HeJ mice to the level of wildtype controls | stool parameters and whole-gut transit time in wildtype control mice ([3]; C3H/HeOuJ mice): did not affect stool parameters or whole-gut transit time | CFTR activation at 3 μM ([4]; 3 μM): nearly full activation | EC50 ([4]; EC50 for CFTR activation, FRT cells, wild-type CFTR, short-circuit current): ~200 nM and 200 nM | extent of CFTR activation (Isc) ([4]; forskolin produced little or no further increase in current): fully activated CFTR | EC50 [5]: ~300 nM | compound remaining at 60 min ([6]; human hepatic microsomes): 34% | half-life at 5 μM ([6]; human, liver microsomes, 5 μM, NADPH, read-out: elimination half-life in human hepatic microsomes): ~35 min | potentiation of ΔF508-CFTR [7]: substantially less potent than ivacaftor; also recorded: only a weak potentiator | degradation in simulated gastric fluid [8]: no compound degradation
